{
  "source": "patent US20260207768A1",
  "about": "“NOVEL LINKER DRUGS COMPRISING PHOSPHOANTIGENS, NOVEL CONJUGATES AND THEIR USE IN THERAPY” (priority 2022, published 2026)",
  "key": {"[1]": {"system": "CD20-positive Burkitt's Lymphoma human tumor cell line Raji", "test": "Cellular binding to Raji cells (flow cytometry, MFI)", "settings": "30 minutes at 4° C.", "protocol": "The CD20-positive Burkitt's Lymphoma human tumor cell line Raji (DSMZ, the German collection of Microorganisms and cell cultures GmbH) was used for in vitro experiments. Raji cells were cultured in complete growth medium (CGM): RPMI-1640 (Lonza) supplemented with 10% Heat-inactivated (HI) Fetal Bovine Serum (FBS) (Gibco) and 80 U/mL Penicillin-Streptomycin solution (Lonza). Raji cells were maintained at 37° C. in a humidified incubator containing 5% CO2 and sub-cultured twice a week. […] Fluorescence intensities were determined by flow cytometry using the NovoCyte (Agilent) and determined as the median fluorescence intensity (MFI). […] EC50 values were calculated in GraphPad Prism as the concentration in μg/mL that gives a response halfway between bottom and top of the curve. […]\nThese ADCs were tested for their ability to bind Raji cells (using a binding assay, as described in Example 5) and to activate Vdelta2 gammadelta T-cells after overnight incubation with CD20-positive Raji cells. The pretreated Raji cells were cocultured with peripheral blood mononuclear cells (PBMCs) and activation (IFNγ production) and degranulation (CD107a) of Vdelta2 gammadelta T-cells and NK-cells was determined using multicolor flow cytometry, as described for the Functional assay in Example 5."}, "[2]": {"system": "Vdelta2 gammadelta T-cells", "test": "Functional assay: Vdelta2 gammadelta T-cell activation (CD107a, IFNγ) after co-culture of PBMCs with pretreated Raji cells", "type": "cell-based, human", "parameters": "key to IFNγ production by Vdelta2 populations, EC50: †: incomplete curve saturation (no EC50 calculation possible); ††: low number of IFNγ-positive cells, no reliable EC50 calculation possible", "settings": "Donor two; Raji cells pre-treated overnight, 6 hours coculture with PBMCs", "protocol": "Multiple synthesized linker drug compounds were conjugated to rituximab (anti-CD20) and resulting ADCs were tested for their ability to bind Raji cells and to activate Vdelta2 gammadelta T-cells after overnight incubation with CD20-positive Raji cells. The linker drug compounds that were conjugated to rituximab, and resulting ADCs, are within the list reflected in Table 1. The pretreated Raji cells were cocultured with peripheral blood mononuclear cells (PBMCs) and activation (IFNγ production) and degranulation (CD107a) of Vdelta2 gammadelta T-cells and NK-cells was determined using multicolor flow cytometry.\nFor stimulation with ADCs according to the invention, Raji cells were harvested, diluted to a concentration of 5×10^6 cells/mL and 50 μL (equivalent to 250,000 cells/well) of this cell suspension was seeded into a 96-well plate. […] The recovered PBMCs were harvested, counted and diluted to a concentration of 10×10^6 cells/mL in CGM, and 50 μL/well (equivalent to 0.5×10^6 cells/well) was added to the Raji cells. […]"}, "[3]": {"system": "NK-cells", "settings": "shown in WO2023/275025; cited from earlier work"}},
  "data": [
    {"substance": "Rituximab: anti-CD20 antibody rituximab [reference compound]", "values": [
      {"measurement": "EC50 binding to Raji cells", "setting": "[1]", "value": 3.30, "unit": "µg/mL"},
      {"measurement": "CD107a production by Vdelta2 populations, EC50", "setting": "[2]", "value": 0.094, "unit": "µg/mL"},
      {"measurement": "IFNγ production by Vdelta2 populations, EC50", "setting": "[2]", "value": "††"},
      {"measurement": "Activation of NK-cells (in words)", "setting": "[3]", "value": "induced activation of NK-cells"}
    ]}
  ]
}
